Test results reported in ChEMBL document CHEMBL2010779, “Dibenzocyclooctadiene lignans from Kadsura polysperma and their antineurodegenerative activities” (2012).

Key:
Format in all cases: functional
Details in all cases: read-out: Activity
PC-12 [1] = test: Neuroprotective activity against amyloid beta(25-35)-induced cell death in rat PC12 cells assessed as cell viability at 1 uM incubated for 2 hrs prior to amyloid beta(25-35)-challenge measured after 24 hrs by MTT assay (reference value: 38.8 +/- 1%)
PC-12 [2] = test: Neuroprotective activity against amyloid beta(25-35)-induced cell death in rat PC12 cells assessed as cell viability at 10 uM incubated for 2 hrs prior to amyloid beta(25-35)-challenge measured after 24 hrs by MTT assay (reference value: 38.8 +/- 1%)
PC-12 [3] = test: Neuroprotective activity against H2O2-induced cell death in rat PC12 cells assessed as cell viability at 1 uM incubated for 2 hrs prior to H2O2-challenge measured after 24 hrs by MTT assay (reference value: 53.7 +/- 1.7%)
PC-12 [4] = test: Neuroprotective activity against H2O2-induced cell death in rat PC12 cells assessed as cell viability at 10 uM incubated for 2 hrs prior to H2O2-challenge measured after 24 hrs by MTT assay (reference value: 53.7 +/- 1.7%)
PC-12 [5] = test: Neuroprotective activity against amyloid beta(25-35)-induced cell death in rat PC12 cells assessed as cell viability at 1 uM incubated for 2 hrs prior to amyloid beta(25-35)-challenge measured after 24 hrs by MTT assay (reference value: 34.8 +/- 0.8%)
PC-12 [6] = test: Neuroprotective activity against amyloid beta(25-35)-induced cell death in rat PC12 cells assessed as cell viability at 10 uM incubated for 2 hrs prior to amyloid beta(25-35)-challenge measured after 24 hrs by MTT assay (reference value: 34.8 +/- 0.8%)
PC-12 [7] = test: Neuroprotective activity against H2O2-induced cell death in rat PC12 cells assessed as cell viability at 1 uM incubated for 2 hrs prior to H2O2-challenge measured after 24 hrs by MTT assay (reference value: 53.1 +/- 1.1%)
PC-12 [8] = test: Neuroprotective activity against H2O2-induced cell death in rat PC12 cells assessed as cell viability at 10 uM incubated for 2 hrs prior to H2O2-challenge measured after 24 hrs by MTT assay (reference value: 53.1 +/- 1.1%)

In the case of `C/C=C(\C)C(=O)O[C@H]1c2cc(OC)c(OC)c(OC)c2-c2c(cc3c(c2OC)OCO3)[C@H](OC(=O)CC)[C@H](C)[C@H]1C`, the viability at 1 µM (PC-12 [1]) was 43.1%, the viability at 10 µM (PC-12 [2]) was 39.3% and the viability at 1 µM (PC-12 [3]) was 54.6%. It also gave a viability at 10 µM (PC-12 [4]) of 60.7%.
`COc1cc2c(c(OC)c1OC)-c1c(cc3c(c1OC)OCO3)[C@H](O)[C@H](C)[C@H](C)C2` [ISOGOMISIN O] gave a viability at 1 µM (PC-12 [1]) of 38%, a viability at 10 µM (PC-12 [2]) of 33.3% and a viability at 1 µM (PC-12 [3]) of 48.8%. The viability at 10 µM (PC-12 [4]) was 55.8%.
`COc1cc2c(c(OC)c1OC)-c1c(cc3c(c1OC)OCO3)[C@H](OC(=O)/C=C/c1ccccc1)[C@H](C)[C@H](C)C2` [KADSUPHILINS A] showed a viability at 1 µM (PC-12 [5]) of 35.3%, a viability at 10 µM (PC-12 [6]) of 32.3% and a viability at 1 µM (PC-12 [7]) of 53%. For the same compound, the viability at 10 µM (PC-12 [8]) was 52.5%.
For `COc1cc2c(c(OC)c1OC)-c1c(cc3c(c1OC)OCO3)[C@H](OC(C)=O)[C@H](C)[C@H](C)C2` [KADSURIN], the viability at 1 µM (PC-12 [5]) was 35.1%, the viability at 10 µM (PC-12 [6]) was 32.9% and the viability at 1 µM (PC-12 [7]) was 57.2%. It also gave a viability at 10 µM (PC-12 [8]) of 44%.
In the case of `C/C=C(\C)C(=O)Oc1c(OC)c(OC)cc2c1-c1c(cc(OC)c(OC)c1OC)[C@H](O)[C@H](C)[C@H](C)C2` [METHYL SCHISANTHERIN F], the viability at 1 µM (PC-12 [1]) was 41.4%, the viability at 10 µM (PC-12 [2]) was 41% and the viability at 1 µM (PC-12 [3]) was 50.4%. The viability at 10 µM (PC-12 [4]) was 53.4%.
`C/C=C(/C)C(=O)O[C@H]1c2cc3c(c(OC)c2-c2c(cc(OC)c(OC)c2OC)[C@H](OC(=O)/C(C)=C\C)[C@@H](C)[C@H]1C)OCO3` [POLYSPERLIGNAN A] showed a viability at 1 µM (PC-12 [1]) of 39.9%, a viability at 10 µM (PC-12 [2]) of 46.4% and a viability at 1 µM (PC-12 [3]) of 55.8%. For the same compound, the viability at 10 µM (PC-12 [4]) was 58.2%.
`C/C=C(\C)C(=O)O[C@H]1c2cc3c(c(OC)c2-c2c(cc(OC)c(OC)c2OC)[C@H](OC(C)=O)[C@@H](C)[C@H]1C)OCO3` [POLYSPERLIGNAN B] gave a viability at 1 µM (PC-12 [5]) of 36.4%, a viability at 10 µM (PC-12 [6]) of 34.1% and a viability at 1 µM (PC-12 [7]) of 55.9%. It also gave a viability at 10 µM (PC-12 [8]) of 58.9%.
`C/C=C(/C)C(=O)O[C@H]1c2cc3c(c(OC)c2-c2c(cc(OC)c(OC)c2OC)[C@H](OC(=O)/C=C/c2ccccc2)[C@@H](C)[C@H]1C)OCO3` [POLYSPERLIGNAN E] was tested, and the viability at 1 µM (PC-12 [1]) was 39%, the viability at 10 µM (PC-12 [2]) was 39.7% and the viability at 1 µM (PC-12 [3]) was 57.1%. It also gave a viability at 10 µM (PC-12 [4]) of 58.9%.
With `COc1cc2c(c(OC)c1OC)-c1c(cc3c(c1OC)OCO3)[C@H](OC(=O)/C=C\c1ccccc1)[C@H](C)[C@H](C)C2` [POLYSPERLIGNAN F] the viability at 1 µM (PC-12 [1]) was 38.4%, the viability at 10 µM (PC-12 [2]) was 36.4% and the viability at 1 µM (PC-12 [3]) was 55.2%. The viability at 10 µM (PC-12 [4]) was 58.5%.
In the case of `C/C=C(/C)C(=O)Oc1c(OC)c(OC)cc2c1-c1c(cc(OC)c(OC)c1OC)[C@H](O)[C@H](C)[C@H](C)[C@H]2OC(=O)/C(C)=C\C` [POLYSPERLIGNAN I], the viability at 1 µM (PC-12 [1]) was 39%, the viability at 10 µM (PC-12 [2]) was 41.2% and the viability at 1 µM (PC-12 [3]) was 53.3%. For the same compound, the viability at 10 µM (PC-12 [4]) was 53.7%.
Compound `COc1cc2c(c(OC)c1OC)-c1c(cc3c(c1OC)OCO3)[C@H](O)[C@@H](C)[C@@H](C)C2` [YUNNANKADSURIN B] has a viability at 1 µM (PC-12 [5]) of 35.2%, a viability at 10 µM (PC-12 [6]) of 33.2% and a viability at 1 µM (PC-12 [7]) of 51%. For the same compound, the viability at 10 µM (PC-12 [8]) was 53.3%.
